System: mTORc1 signaling, pS6 (Ser240/244) in MEF TSCl−/− cells
Assay: Cell-based assay for rapalog potency (pS6) in MEF TSCl−/− cells
Settings: Mus musculus, 2 hours treatment, average from multiple assays
Experimental: Rapalog potency was determined using MEF TSCl−/− cell based assay. MEF TSCl−/− cells are Mouse Embryonic Fibroblasts deficient in Tuberous sclerosis protein—TSCl, which negatively regulates mTORc1 signaling and thus display constitutive mTORc1 activation, resulting in phosphorylation (activation) of downstream molecules. This cell-based assay is used to measure inhibition (de-phosphorylation) of S6 and 4EBP1 by rapalogs or other mTOR inhibitors.
MEF TSCl−/− cells were plated on Poly-D-lysine coated 384 well Griener clear bottom plates and incubated overnight at 37° C., 5% CO2. On the following day, cells were washed 8 times with “Hard starve” solution (1 L DPBS+1 g D-(+) glucose+10 ml of 7.5% Sodium Bicarbonate+20 ml of 1M HEPES) and incubated for further 2 hours in the same solution. Cells were next treated with compounds with decreasing concentrations (8 points at 3.16 fold dilutions) and incubated for 2 hours at 37° C., 5% CO2. Cells were fixed with 4% paraformaldehyde for 30 min and washed 5 times with TBS-EDTA followed by immuno-staining with fluorescent tag labeled antibodies for pS6 (Ser240/244) (Cell Signaling #9468) and p4EBP1 (Thr 37/46) (Cell Signaling #5123). Nuclei were visualized with Hoechst (ThermoFisher Scientific #H3570) staining. Cells were imaged (InCell 600) using respective fluorescence channels and the potency of mTOR inhibitors was defined by pS6 IC50 (nM).
In vitro potency of mTOR inhibitors was defined by pS6 IC50 (nM) in MEF TSCl−/− cells.
IC50 values are calculated as the average from multiple assays.

Row | SMILES | IC50 [nM]
1 | CCCS(=O)(=O)N[C@H]1C[C@@H]2CC[C@@H](C)[C@@](O)(O2)C(=O)C(=O)N2CCCC[C@H]2C(=O)O[C@H]([C@H](C)C[C@@H]2CC[C@@H](O)[C@H](OC)C2)CC[C@H](C)/C=C(\C)[C@@H](O)[C@@H](OC)C(=O)[C@H](C)C[C@H](C)/C=C/C=C/C=C/1C [Compound 5] | 1.8
2 | CCCS(=O)(=O)N[C@@H]1C[C@@H]2CC[C@@H](C)[C@@](O)(O2)C(=O)C(=O)N2CCCC[C@H]2C(=O)O[C@H]([C@H](C)C[C@@H]2CC[C@@H](O)[C@H](OC)C2)CC[C@H](C)/C=C(\C)[C@@H](O)[C@@H](OC)C(=O)[C@H](C)C[C@H](C)/C=C/C=C/C=C/1C [Compound 6] | 13
3 | CO[C@@H]1C[C@H](C[C@@H](C)[C@@H]2CC[C@H](C)/C=C(\C)[C@@H](O)[C@@H](OC)C(=O)[C@H](C)C[C@H](C)/C=C/C=C/C=C(\C)[C@@H](NS(=O)(=O)C(C)C)C[C@@H]3CC[C@@H](C)[C@@](O)(O3)C(=O)C(=O)N3CCCC[C@H]3C(=O)O2)CC[C@H]1O [Compound 7] | 2.4
4 | CO[C@@H]1C[C@H](C[C@@H](C)[C@@H]2CC[C@H](C)/C=C(\C)[C@@H](O)[C@@H](OC)C(=O)[C@H](C)C[C@H](C)/C=C/C=C/C=C(\C)[C@H](NS(=O)(=O)C(C)C)C[C@@H]3CC[C@@H](C)[C@@](O)(O3)C(=O)C(=O)N3CCCC[C@H]3C(=O)O2)CC[C@H]1O [Compound 8] | 4.5
5 | CO[C@@H]1C[C@H](C[C@@H](C)[C@@H]2CC[C@H](C)/C=C(\C)[C@@H](O)[C@@H](OC)C(=O)[C@H](C)C[C@H](C)/C=C/C=C/C=C(\C)[C@@H](NS(=O)(=O)CC(C)C)C[C@@H]3CC[C@@H](C)[C@@](O)(O3)C(=O)C(=O)N3CCCC[C@H]3C(=O)O2)CC[C@H]1O [Compound 9] | 2.7
6 | CO[C@@H]1C[C@H](C[C@@H](C)[C@@H]2CC[C@H](C)/C=C(\C)[C@@H](O)[C@@H](OC)C(=O)[C@H](C)C[C@H](C)/C=C/C=C/C=C(\C)[C@H](NS(=O)(=O)CC(C)C)C[C@@H]3CC[C@@H](C)[C@@](O)(O3)C(=O)C(=O)N3CCCC[C@H]3C(=O)O2)CC[C@H]1O [Compound 10] | 12
7 | CO[C@@H]1C[C@H](C[C@@H](C)[C@@H]2CC[C@H](C)/C=C(\C)[C@@H](O)[C@@H](OC)C(=O)[C@H](C)C[C@H](C)/C=C/C=C/C=C(\C)[C@@H](NS(=O)(=O)C3CCC3)C[C@@H]3CC[C@@H](C)[C@@](O)(O3)C(=O)C(=O)N3CCCC[C@H]3C(=O)O2)CC[C@H]1O [Compound 13] | 5.3
8 | CO[C@@H]1C[C@H](C[C@@H](C)[C@@H]2CC[C@H](C)/C=C(\C)[C@@H](O)[C@@H](OC)C(=O)[C@H](C)C[C@H](C)/C=C/C=C/C=C(\C)[C@H](NS(=O)(=O)C3CCC3)C[C@@H]3CC[C@@H](C)[C@@](O)(O3)C(=O)C(=O)N3CCCC[C@H]3C(=O)O2)CC[C@H]1O [Compound 14] | 7.2
9 | CO[C@@H]1C[C@H](C[C@@H](C)[C@@H]2CC[C@H](C)/C=C(\C)[C@@H](O)[C@@H](OC)C(=O)[C@H](C)C[C@H](C)/C=C/C=C/C=C(\C)[C@@H](NS(=O)(=O)C3CCCC3)C[C@@H]3CC[C@@H](C)[C@@](O)(O3)C(=O)C(=O)N3CCCC[C@H]3C(=O)O2)CC[C@H]1O [Compound 15] | 3.6
10 | CO[C@@H]1C[C@H](C[C@@H](C)[C@@H]2CC[C@H](C)/C=C(\C)[C@@H](O)[C@@H](OC)C(=O)[C@H](C)C[C@H](C)/C=C/C=C/C=C(\C)[C@H](NS(=O)(=O)C3CCCC3)C[C@@H]3CC[C@@H](C)[C@@](O)(O3)C(=O)C(=O)N3CCCC[C@H]3C(=O)O2)CC[C@H]1O [Compound 16] | 50
11 | CO[C@@H]1C[C@H](C[C@@H](C)[C@@H]2CC[C@H](C)/C=C(\C)[C@@H](O)[C@@H](OC)C(=O)[C@H](C)C[C@H](C)/C=C/C=C/C=C(\C)[C@@H](NS(=O)(=O)CCCCl)C[C@@H]3CC[C@@H](C)[C@@](O)(O3)C(=O)C(=O)N3CCCC[C@H]3C(=O)O2)CC[C@H]1O [Compound 17] | 1.6
12 | CO[C@@H]1C[C@H](C[C@@H](C)[C@@H]2CC[C@H](C)/C=C(\C)[C@@H](O)[C@@H](OC)C(=O)[C@H](C)C[C@H](C)/C=C/C=C/C=C(\C)[C@@H](NS(=O)(=O)CCO)C[C@@H]3CC[C@@H](C)[C@@](O)(O3)C(=O)C(=O)N3CCCC[C@H]3C(=O)O2)CC[C@H]1O [Compound 19] | 0.34
13 | CO[C@@H]1C[C@H](C[C@@H](C)[C@@H]2CC[C@H](C)/C=C(\C)[C@@H](O)[C@@H](OC)C(=O)[C@H](C)C[C@H](C)/C=C/C=C/C=C(\C)[C@H](NS(=O)(=O)CCO)C[C@@H]3CC[C@@H](C)[C@@](O)(O3)C(=O)C(=O)N3CCCC[C@H]3C(=O)O2)CC[C@H]1O [Compound 20] | 1.7
14 | CO[C@@H]1C[C@H](C[C@@H](C)[C@@H]2CC[C@H](C)/C=C(\C)[C@@H](O)[C@@H](OC)C(=O)[C@H](C)C[C@H](C)/C=C/C=C/C=C(\C)[C@H](NS(C)(=O)=O)C[C@@H]3CC[C@@H](C)[C@@](O)(O3)C(=O)C(=O)N3CCCC[C@H]3C(=O)O2)CC[C@@H]1n1cnnn1 [Compound 21] | 2.1
15 | CO[C@@H]1C[C@H](C[C@@H](C)[C@@H]2CC[C@H](C)/C=C(\C)[C@@H](O)[C@@H](OC)C(=O)[C@H](C)C[C@H](C)/C=C/C=C/C=C(\C)[C@@H](NS(C)(=O)=O)C[C@@H]3CC[C@@H](C)[C@@](O)(O3)C(=O)C(=O)N3CCCC[C@H]3C(=O)O2)CC[C@@H]1n1cnnn1 [Compound 22] | 0.11
16 | CO[C@@H]1C[C@H](C[C@@H](C)[C@@H]2CC[C@H](C)/C=C(\C)[C@@H](O)[C@@H](OC)C(=O)[C@H](C)C[C@H](C)/C=C/C=C/C=C(\C)[C@H](NS(C)(=O)=O)C[C@@H]3CC[C@@H](C)[C@@](O)(O3)C(=O)C(=O)N3CCCC[C@H]3C(=O)O2)CC[C@H]1OP(C)(C)=O [Compound 23] | 26
17 | CO[C@@H]1C[C@H](C[C@@H](C)[C@@H]2CC[C@H](C)/C=C(\C)[C@@H](O)[C@@H](OC)C(=O)[C@H](C)C[C@H](C)/C=C/C=C/C=C(\C)[C@H](NS(C)(=O)=O)C[C@@H]3CC[C@@H](C)[C@@](O)(O3)C(=O)C(=O)N3CCCC[C@H]3C(=O)O2)CC[C@H]1OCCO [Compound 25] | 1.8
18 | CO[C@@H]1C[C@H](C[C@@H](C)[C@@H]2CC[C@H](C)/C=C(\C)[C@@H](O)[C@@H](OC)C(=O)[C@H](C)C[C@H](C)/C=C/C=C/C=C(\C)[C@@H](N(C)S(C)(=O)=O)C[C@@H]3CC[C@@H](C)[C@@](O)(O3)C(=O)C(=O)N3CCCC[C@H]3C(=O)O2)CC[C@H]1OP(C)(C)=O [Compound 27] | 1.9
19 | CO[C@@H]1C[C@H](C[C@@H](C)[C@@H]2CC[C@H](C)/C=C(\C)[C@@H](O)[C@@H](OC)C(=O)[C@H](C)C[C@H](C)/C=C/C=C/C=C(\C)[C@@H](N)C[C@@H]3CC[C@@H](C)[C@@](O)(O3)C(=O)C(=O)N3CCCC[C@H]3C(=O)O2)CC[C@H]1O [Compound 28] | 0.35
20 | CO[C@@H]1C[C@H](C[C@@H](C)[C@@H]2CC[C@H](C)/C=C(\C)[C@@H](O)[C@@H](OC)C(=O)[C@H](C)C[C@H](C)/C=C/C=C/C=C(\C)[C@H](N)C[C@@H]3CC[C@@H](C)[C@@](O)(O3)C(=O)C(=O)N3CCCC[C@H]3C(=O)O2)CC[C@H]1O [Compound 29] | 30
21 | CN[C@@H]1C[C@@H]2CC[C@@H](C)[C@@](O)(O2)C(=O)C(=O)N2CCCC[C@H]2C(=O)O[C@H]([C@H](C)C[C@@H]2CC[C@@H](O)[C@H](OC)C2)CC[C@H](C)/C=C(\C)[C@@H](O)[C@@H](OC)C(=O)[C@H](C)C[C@H](C)/C=C/C=C/C=C/1C [Compound 32] | 18
22 | CN[C@H]1C[C@@H]2CC[C@@H](C)[C@@](O)(O2)C(=O)C(=O)N2CCCC[C@H]2C(=O)O[C@H]([C@H](C)C[C@@H]2CC[C@@H](O)[C@H](OC)C2)CC[C@H](C)/C=C(\C)[C@@H](O)[C@@H](OC)C(=O)[C@H](C)C[C@H](C)/C=C/C=C/C=C/1C [Compound 33] | 0.67
23 | CO[C@@H]1C[C@H](C[C@@H](C)[C@@H]2CC[C@H](C)/C=C(\C)[C@@H](O)[C@@H](OC)C(=O)[C@H](C)C[C@H](C)/C=C/C=C/C=C(\C)[C@H](N(O)C(=O)OC(C)(C)C)C[C@@H]3CC[C@@H](C)[C@@](O)(O3)C(=O)C(=O)N3CCCC[C@H]3C(=O)O2)CC[C@H]1O [Compound 34] | 27
24 | CO[C@@H]1C[C@H](C[C@@H](C)[C@@H]2CC[C@H](C)/C=C(\C)[C@@H](O)[C@@H](OC)C(=O)[C@H](C)C[C@H](C)/C=C/C=C/C=C(\C)[C@@H](N(O)C(=O)OC(C)(C)C)C[C@@H]3CC[C@@H](C)[C@@](O)(O3)C(=O)C(=O)N3CCCC[C@H]3C(=O)O2)CC[C@H]1O [Compound 35] | 4.4
25 | CO[C@@H]1C[C@H](C[C@@H](C)[C@@H]2CC[C@H](C)/C=C(\C)[C@@H](O)[C@@H](OC)C(=O)[C@H](C)C[C@H](C)/C=C/C=C/C=C(\C)[C@H](NO)C[C@@H]3CC[C@@H](C)[C@@](O)(O3)C(=O)C(=O)N3CCCC[C@H]3C(=O)O2)CC[C@H]1O [Compound 36] | 1.6
26 | CO[C@@H]1C[C@H](C[C@@H](C)[C@@H]2CC[C@H](C)/C=C(\C)[C@@H](O)[C@@H](OC)C(=O)[C@H](C)C[C@H](C)/C=C/C=C/C=C(\C)[C@@H](NO)C[C@@H]3CC[C@@H](C)[C@@](O)(O3)C(=O)C(=O)N3CCCC[C@H]3C(=O)O2)CC[C@H]1O [Compound 37] | 0.21
